Data on one compound can be found in patent US20230048678A1, “ICAN DERIVATIVES FOR ANTIFUNGAL USE” (DEBRECENI EGYETEM, priority 2019, published 2023).

A value given as a limit tells only on which side of the number the result lay.

In data set [1] the test system is C. albicans SC5314. The data set can be described thus: CLSI broth microdilution susceptibility (Table 1). It counts as cell-based. The note with it: 48 h, 35° C. The method, then:
(§1) ICAN has 3 key moieties, namely the amino, naphthalene and isonitrile. To find out which ones of them are essential for the antifungal behavior and to design more efficient derivatives, comparative studies were carried out, where one of the moieties was exchanged or eliminated. All ICAN derivatives were tested against C. albicans SC5314, C. krusei ATCC 6258 and C. parapsilosis ATCC 22019. The antifungal agents were dissolved in 100% DMSO and diluted further in RPMI-1640 (with L-glutamine but without bicarbonate) and buffered to pH 7.0 with 0.165 M morpholinopropanesulfonic acid (MOPS). MICs were read visually after 48-h incubation at 35° C. using the partial (50%) inhibition (for ICAN derivatives) (PI) and total inhibition (for AMB and ICAN derivatives) (TI) criteria. MICs were determined at least twice.
(§2) The tested C. albicans, C. tropicalis, C. parapsilosis, C. glabrata and C. krusei ATCC strains and clinical isolates are listed in Table 2. MICs were determined according to the CLSI M27-A3 [22]. Antifungal agents were dissolved in 100% DMSO and diluted further in RPMI-1640 (with L-glutamine but without bicarbonate) (Sigma, Budapest, Hungary), and buffered to pH 7.0 with 0.165 M morpholinopropanesulfonic acid (MOPS; Sigma, Budapest, Hungary). The final concentration ranges used for AMB and ICAN derivatives were 0.125 to 4 μg/ml and 0.04 to 20 μg/ml, respectively. Yeast cell suspensions were prepared in RPMI 1640 medium and were adjusted to give a final inoculum concentration of 0.5×10^3 to 2.5×10^3 cells/ml. MICs were read visually after 48-h incubation at 35° C. using the partial (50%) inhibition (for ICAN derivatives) (PI) and total inhibition (for AMB and ICAN derivatives) (TI) criteria. MICs were determined at least twice. For amphotericin B isolates with MIC values of ≤2 mg/L were considered wild-types. [Pfaller M A, 2012]

For data set [2], the system named is C. krusei ATCC 6258. The experiment in a line: CLSI broth microdilution susceptibility (Table 1). The class given is cell-based. Conditions: 48 h, 35° C. The method, then: as §1, §2
(In general: In broth dilution the organism is exposed to a series of concentrations in liquid medium.)

The test system of data set [3] is C. parapsilosis ATCC 22019. The experiment in a line: CLSI broth microdilution susceptibility (Table 1). It counts as cell-based. The note with it: 48 h, 35° C. On the procedure:
as §1, §2

In data set [4] the test system is clinical Candida isolates (C. albicans, C. krusei, C. tropicalis, C. glabrata, C. parapsilosis). The experiment in a line: Broth microdilution, MIC summarised over all clinical Candida isolates. It counts as cell-based. The note with it: range or bound over all tested isolates of five Candida species. On the procedure:
The present inventors have discovered that 1-amino-5-isocyanonaphthalene (ICAN) and its derivatives exert excellent antifungal activity against a broad range of Candida species. […] Nevertheless, proper formulation and/or substitution with solubility enhancer groups on the naphthalene core may increase its effectiveness. Based on MIC values (MICPI=0.04−0.3 μg/ml MICTI=0.6 μg/ml) and its low cytotoxicity 1,1-N-dimethylamino-5-isocyanonaphthalene (DIMICAN) was selected to be tested on clinical Candida isolates. […] Amphotericin B (AMB) is an antifungal agent which is effective against a number of medically important fungi. The in vivo applicability of DIMICAN was tested on immunosuppressed mice and control experiments were also conducted with amphotericin B. In the model of acute invasive candidiasis, neutropenic mice were infected intravenously with C. albicans isolate 3666 (3×10^4 cfu/mouse) to establish an acute infection, and all untreated control animals died within 6 days. […]
The tested C. albicans, C. tropicalis, C. parapsilosis, C. glabrata and C. krusei ATCC strains and clinical isolates are listed in Table 2. MICs were determined according to the CLSI M27-A3 [22]. […] MICs were read visually after 48-h incubation at 35° C. using the partial (50%) inhibition (for ICAN derivatives) (PI) and total inhibition (for AMB and ICAN derivatives) (TI) criteria. MICs were determined at least twice. […]

Data set [5] concerns human cell cultures. The data set can be described thus: MTT bio assay cytotoxicity. It counts as cell-based. The note with it: MTT bio assay technique. Background: Formazan colour is commonly taken as a measure of viable cells.
The test system of data set [6] is C. albicans isolate 3666. The data set can be described thus: Murine model of acute invasive candidiasis, survival. It counts as in vivo, BALB/c mice. Conditions: neutropenic mice, 3×10^4 cfu/mouse iv, 5 mg/kg ip once daily for 5 days, olive oil/water emulsion; untreated controls 0%, P<0.05. On the procedure: In the model of acute invasive candidiasis, neutropenic mice were infected via the lateral tail vein with C. albicans isolate 3666 (3×10^4 cfu/mouse) to establish an acute infection. It is well understood that any other fungal pathogens of animals can be used for this purpose. In the example provided herein all untreated control animals died within 6 days. DIMICAN (5 mg/kg) prolonged the survival period of animals compared to non-treated infected controls (P<0.05; 80 versus 0% survivors at day 7 post-infection; FIG. 3a). It should be noted, however, that DIMICAN was administered as intraperitoneal injection which contained DIMICAN as an emulsion in reagent grade olive oil and water. While emulsions are a kind of preferred options in the preparations of the invention, preparing alternative or improved formulations are within the skills of a person skilled in the art.
We used 10-12 week-old female BALB/c mice for all experiments. […] Mice were given food and water ad libitum and were monitored daily. […]
Survival effects were analyzed by the Kaplan—Meier log-rank test. Kidney burden was analysed using a Kruskal—Wallis test with Dunn's posttest for multiple comparisons [Foldi R 2012, Kovacs R 2014].

Take `[C-]#[N+]c1cccc2c(N(C)C)cccc12` [DIMICAN, N,N-dimethyl-1-amino-5-isocyanonaphthalene]: the MICPI was at most 0.04 µg/mL in data set [1] (partial (50%) inhibition), 0.15 µg/mL in data set [2] (partial (50%) inhibition) and 0.15 µg/mL in data set [3] (partial (50%) inhibition). For the same compound, the MICTI amounted to 0.6 µg/mL in data set [1] (total inhibition), 0.3 µg/mL in data set [2] (total inhibition) and 0.6 µg/mL in data set [3] (total inhibition). In data set [4], the “total minimum inhibitory concentration (MICTI)” value lay within 0.08 to 1.25 µg/mL. This compound also registered an LD50 in data set [5] of 13 µg/mL. Moreover, the “survivors at day 7 post infection” value in data set [6] is on record as 80%.
